Assay results taken from patent publication US6967196B1, “Sulfonamide compounds and uses thereof” (Bristol-Myers Squibb Company, priority 1999, dated 2005).
Structures can show the parent of a compound that is named as a salt. Where two headings read alike, the source gives them in different places. Blank lines part the entries; values can stand above or below the compound they belong to.

System: amyloid β production in transfected H4 (human neuroglioma) cells stably expressing APP constructs
Experiment: In vitro cell-based assay of inhibitors of amyloid β production (ELISA)
Conditions: amyloid β in medium by ELISA, read-out: ACTIVITY (IC50, inhibition of amyloid β production)
Outline: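 Cells expressing wild-type or variant APP were plated ≥6 h before medium was replaced with compound-containing medium (initial screen 10-100 μM) and incubated ~16 h. Secreted Aβ in medium was quantified by sandwich ELISA (C-terminal-specific mouse monoclonal capture, N-terminal rabbit polyclonal detection) against an Aβ standard curve.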

[1] = Homo sapiens, 16 h, transfected H4 cells stably expressing APP, approximately 16 hours incubation
[2] = Homo sapiens, 16 h, transfected H4 cells stably expressing APP, approximately 16 hours incubation, Table B
[3] = Homo sapiens, 16 h, transfected H4 cells stably expressing APP constructs, approximately 16 hours incubation
[4] = transfected H4 cells stably expressing APP, approximately 16 hours incubation, Table B
[5] = transfected H4 cells stably expressing APP constructs, approximately 16 hours incubation
[6] = transfected H4 cells stably expressing APP, approximately 16 hours incubation
[7] = Homo sapiens, 16 h, transfected H4 cells stably expressing APP, approx. 16 h incubation
[8] = Homo sapiens, 16 h, transfected H4 cells expressing APP, approximately 16 hours incubation

IC50 [1]: > 500 nM
Compound: Cc1cccc(N(Cc2ccccc2OCCCN2CCCCC2)S(=O)(=O)c2ccc(Cl)cc2)c1 [Example 919, 4-chloro-N-(3-methylphenyl)-N-{2-[3-(1-piperidinyl)propoxy]benzyl}benzenesulfonamide hydrochloride]

IC50 [2]: 50 to 100 nM
Compound: CCN(CCOc1ccccc1C(C)N(c1cc(F)ccc1F)S(=O)(=O)c1ccc(Cl)cc1)C(=O)CSc1ccccc1 (stereo not shown) [Example 417, N-{2-[2-(1-{[(4-chlorophenyl)sulfonyl]-2,5-difluoroanilino}ethyl)phenoxy]ethyl}-N-ethyl-2-(phenylsulfanyl)acetamide]

IC50 [3]: ≤ 25 nM
Compound: C[C@H](CCC[N+](=O)[O-])N(c1cc(Cl)ccc1F)S(=O)(=O)c1ccc(Cl)cc1 [Example 1107, 4-chloro-N-(5-chloro-2-fluorophenyl)-N-[4-nitro-1(R)-methylbutyl]benzenesulfonamide]

IC50 [1]: > 500 nM
Compound: C[C@H](c1ccccc1OCCCN(C)C(=O)C(C)(C)C)N(c1cc(F)ccc1F)S(=O)(=O)c1ccc(Cl)cc1 [Example 1059, N-{3-[2-((1R)-1-{[(4-chlorophenyl)sulfonyl]-2,5-difluoroanilino}ethyl)phenoxy]propyl}-N,2,2-trimethylpropanamide]

IC50 [2]: 50 to 100 nM
Compound: C[C@H](c1ccccc1CCOC(=O)NCc1ccccc1)N(c1cc(F)ccc1F)S(=O)(=O)c1ccc(Cl)cc1 [Example 389, 2-[2-((1R)-1-{[(4-chlorophenyl)sulfonyl]-2,5-difluoroanilino}ethyl)phenyl]ethyl benzylcarbamate]

IC50 [1]: > 500 nM
Compound: CS(=O)(=O)c1cccc(N(Cc2ccccc2OCCCN2CCCCC2)S(=O)(=O)c2ccc(Cl)cc2)c1 [Example 1036, 4-chloro-N-[3-(methylsulfonyl)phenyl]-N-{2-[3-(1-piperidinyl)propoxy]benzyl}benzenesulfonamide hydrochloride]

IC50 [7]: 100 to 500 nM
Compound: O=S(=O)(c1ccc(Cl)cc1)N(Cc1ccccc1C#CCN1CCCCC1)c1cc(F)ccc1F [Example 711, 4-chloro-N-(2,5-difluorophenyl)-N-{2-[3-(1-piperidinyl)-1-propynyl]benzyl}benzenesulfonamide hydrochloride]

IC50 [5]: 25 to 50 nM
Compound: CC[C@H](CSCC(=O)O)N(c1cc(Cl)ccc1Cl)S(=O)(=O)c1ccc(Cl)cc1 [Example 1186, (5R)-5-[(2,5-dichlorophenyl)-[(4-chlorophenyl)sulfonyl]-amino]-3-thioheptanoic acid]

IC50 [1]: > 500 nM
Compound: O=S(=O)(c1ccc(Cl)cc1)N(Cc1ccncc1)Cc1ccccc1OCCCN1CCCCC1 [Example 967, 4-chloro-N-{2-[3-(1-piperidinyl)propoxy]benzyl}-N-(4-pyridinylmethyl)benzenesulfonamide hydrochloride]

IC50 [3]: ≤ 25 nM
Compound: C[C@H](CCCS(=O)(=O)N1CCCC1)N(c1cc(Cl)ccc1F)S(=O)(=O)c1ccc(Cl)cc1 [Example 1205, 4-chloro-N-(5-chloro-2-fluorophenyl)-N-[4-[(1-pyrrolidinyl)sulfonyl]-1(R)-methylbutyl]benzenesulfonamide]

IC50 [8]: > 500 nM
Compound: CCN(CCNC(=O)[C@@H](C)N(c1cc(Cl)ccc1F)S(=O)(=O)c1ccc(Cl)cc1)c1cccc(C)c1 [Example 1315]

IC50 [3]: > 500 nM
Compound: COS(=O)(=O)CCC[C@@H](C)N(c1cc(Cl)ccc1Cl)S(=O)(=O)c1ccc(Cl)cc1 [Example 1195, methyl(4R)-4-[N-[2,5-dichlorophenyl][(4-chlorophenyl)sulfonyl]amino]pentylsulfonate]

IC50 [8]: > 500 nM
Compound: C[C@H](C(=O)NC1Cc2ccccc2C1)N(c1cc(Cl)ccc1F)S(=O)(=O)c1ccc(Cl)cc1 [Example 1310]

IC50 [5]: 50 to 100 nM
Compound: COC(=O)C1SCCN1CC[C@@H](C)N(c1cc(Cl)ccc1Cl)S(=O)(=O)c1ccc(Cl)cc1 (stereo partly drawn) [Example 1133, 4-chloro-N-(2,5-dichlorophenyl)-N-[3-(2-methoxycarbonyl-3-thiazolidinyl)-1(R)-methylpropyl]benzenesulfonamide]

IC50 [8]: ≤ 25 nM
Compound: CC(C)NC(=O)OC[C@@H](C)N(c1cc(Cl)ccc1CO)S(=O)(=O)c1ccc(Cl)cc1 [Example 1286]

IC50 [2]: 50 to 100 nM
Compound: C[C@H](c1ccccc1Cn1ncnn1)N(c1cc(F)ccc1F)S(=O)(=O)c1ccc(Cl)cc1 [Example 396]

Second part, the compound before the results:

Compound: O=S(=O)(Cc1ccccc1)N(Cc1ccccc1OCCCN1CCCCC1)c1cc(Cl)ccc1Cl [Example 992, N-(2,5-dichlorophenyl)(phenyl)-N-{2-[3-(1-piperidinyl)propoxy]benzyl}methanesulfonamide hydrochloride]
IC50 [1]: > 500 nM

Compound: COC(=O)[C@H](CS(=O)(=O)Cc1cc(F)ccc1[C@@H](C)N(c1cc(F)ccc1F)S(=O)(=O)c1ccc(Cl)cc1)NC(=O)OC(C)(C)C [Example 469, Methyl (2R)-2-[(tert-butoxycarbonyl)amino]-3-{[2-((1R)-1-{[(4-chlorophenyl)sulfonyl]-2,5-difluoroanilino}ethyl)-5-fluorobenzyl]sulfonyl}propanoate]
IC50 [4]: 50 to 100 nM

Compound: CC(C)S(=O)(=O)CCC[C@@H](C)N(c1cc(Cl)ccc1CO)S(=O)(=O)c1ccc(Cl)cc1 [Example 1220]
IC50 [5]: ≤ 25 nM

Compound: N-{3-[2-({[(4-chlorophenyl)sulfonyl]-2,5-difluoroanilino}ethyl)phenoxy]propyl}-3,4,5-trimethoxy-N-methylbenzamide [Example 913]
IC50 [6]: > 500 nM

Compound: CN1C2CCC1[C@@H](COc1ccccc1CN(c1ccccc1)S(=O)(=O)c1ccc(Cl)cc1)C2 (stereo partly drawn) [Example 941, 4-chloro-N-(2-{[(2S)-7-methyl-7-azabicyclo[2.2.1]hept-2-yl]methoxy}benzyl)-N-phenylbenzenesulfonamide hydrochloride]
IC50 (Homo sapiens, transfected H4 cells stably expressing APP, approximately 16 hours incubation): > 500 nM

Compound: C[C@H](COC(=O)NCCN1CCCCC1)N(c1cc(Cl)ccc1Cl)S(=O)(=O)c1ccc(Cl)cc1 [Example 1242]
IC50 [5]: ≤ 25 nM

Compound: (2E)-3-[2-({[(4-chlorophenyl)sulfonyl]anilino}methyl)phenyl]-N-methoxy-N-methyl-2-propenamide [Example 1034]
IC50 [6]: > 500 nM

Compound: O=S(=O)(c1ccc(Cl)cc1)N(Cc1ccccc1OCCCN1CCCC(O)C1)c1ccccc1 (stereo not shown) [Example 310, 4-Chloro-N-{2-[3-(3-hydroxy-1-piperidinyl)propoxy]benzyl}-N-phenylbenzenesulfonamide Hydrochloride]
IC50 [4]: 50 to 100 nM

Compound: 4-chloro-2-({[(4-chlorophenyl)sulfonyl]anilino}methyl)phenyl trifluoromethanesulfonate [Example 1090]
IC50 [5]: > 10000 nM

Compound: O=S(=O)(c1ccc(Cl)cc1)N(Cc1ccccc1OCCCN1CCCCC1)c1cccc(Cl)c1 [Example 663, 4-chloro-N-(3-chlorophenyl)-N-{2-[3-(1-piperidinyl)propoxy]benzyl}benzenesulfonamide hydrochloride]
IC50 [7]: 100 to 500 nM

Compound: N-{2-[2-(1-{[(4-chlorophenyl)sulfonyl]-2,5-difluoroanilino}ethyl)phenoxy]ethyl}-2-cyclohexyl-N-methylacetamide [Example 844]
IC50 [6]: 100 to 500 nM

Compound: CN1CCCCC1CCOc1ccccc1CN(c1ccccc1)S(=O)(=O)c1ccc(Cl)cc1 (stereo not shown) [Example 276, 4-Chloro-N-{2-[2-(1-methyl-2-piperidinyl)ethoxy]benzyl}-N-phenylbenzenesulfonamide Hydrochloride]
IC50 [4]: 25 to 50 nM

Compound: CC1CC(C)CN(CCCOc2ccccc2CN(c2ccccc2)S(=O)(=O)c2ccc(Cl)cc2)C1 (stereo not shown) [Example 926, 4-chloro-N-{2-[3-(3,5-dimethyl-1-piperidinyl)propoxy]benzyl}-N-phenylbenzenesulfonamide hydrochloride]
IC50 [1]: > 500 nM

Compound: O=S(=O)(CCOc1ccccc1CN(c1cc(F)ccc1F)S(=O)(=O)c1ccc(Cl)cc1)C1CCCCC1 [Example 754, 4-chloro-N-{2-[2-(cyclohexylfulfonyl)ethoxy]benzyl}-N-(2,5-difluorophenyl)benzenesulfonamide]
IC50 (transfected H4 cells stably expressing APP, approx. 16 h incubation): 100 to 500 nM

Compound: N-{3-[2-(1-{[(4-chlorophenyl)sulfonyl]-2,5-difluoroanilino}ethyl)phenoxy]propyl}-N-methyl-3,5-bis(trifluoromethyl)benzamide [Example 934]
IC50 [6]: > 500 nM

Compound: CCSCCC[C@@H](C)N(c1cc(Cl)ccc1CO)S(=O)(=O)c1ccc(SCC)cc1 [Example 1232, 4-ethylthio-N-[5-chloro-2-(hydroxymethyl)phenyl]-N-[1(R)-methyl-(4-ethylthio)butyl]benzenesulfonamide]
IC50 [5]: > 500 nM

Compound: (R)-4-Chloro-N-(2,5-difluorophenyl)-N-[1-[4-fluoro-2-[1-(1,1-dioxo-2-methyl-4-thiomorpholinyl)butanoyl]phenyl]ethyl]benzenesulfonamide [Example 1277]
IC50 [5]: ≤ 25 nM

Compound: 4-benzoyl-N-((1S)-1-{{(3-[2-({[(4-chlorophenyl)sulfonyl]-2,5-difluoroanilino}methyl)phenoxy]propyl}(methyl)amino]carbonyl}-5-{[5-(2-oxohexahydro- [Example 1053]
IC50 [6]: > 500 nM
